In this assay the test system is Botrytis cinerea. The experiment in a line: Test for controlling effect against cucumber gray mold. The conditions noted are these: 500 ppm wettable powder spray, 5 ml per pot; cucumber first leaf stage; lesion areas three days after inoculation. It is filed as in vivo, Botrytis cinerea on cucumber.

As to `CCCCOC(c1cccc(-n2nc(C(N)=O)nc2C2CCCCC2)c1)C(C)C` (centres unmarked) [Compound 5, 1-[3-[(1-butoxy-2-methyl)propyl]phenyl]-5-cyclohexyl-1H-1,2,4-triazole-3-carboxamide], the “Inhibition rate (%) at concentration of 500 ppm Cucumber gray mold” value came to 82%. Then `CCCCOC(c1cccc(-n2nc(C(N)=O)nc2Cc2ccccc2)c1)C(C)C` (centres unmarked) [Compound 6, 1-[3-[(1-butoxy-2-methyl)propyl]phenyl]-5-(phenylmethyl)-1H-1,2,4-triazole-3-carboxamide], with 80%.
